Experimental data reported in patent publication US12312293B2, “Branched tail lipid compounds and compositions for intracellular delivery of therapeutic agents” (ModernaTX, Inc., priority 2019, dated 2025).

Columns and labels:
[1] = Characteristics of lipid nanoparticles (size, PDI, encapsulation efficiency); type: physicochemical; settings: LNP with DSPC, cholesterol, PEG-1 and the compound; for % EE: encapsulation efficiency; for PDI: polydispersity index
Description: Lipid nanoparticles (e.g., empty LNPs or loaded LNPs) may be characterized by a variety of methods. For example, microscopy (e.g., transmission electron microscopy or scanning electron microscopy) may be used to examine the morphology and size distribution of a nanoparticle composition. Dynamic light scattering or potentiometry (e.g., potentiometric titrations) may be used to measure zeta potentials. Dynamic light scattering may also be utilized to determine particle sizes. Instruments such as the Zetasizer Nano ZS (Malvern Instruments Ltd, Malvern, Worcestershire, UK) may also be used to measure multiple characteristics of a nanoparticle composition, such as particle size, polydispersity index, and zeta potential.
The efficiency of encapsulation of a therapeutic and/or prophylactic describes the amount of therapeutic and/or prophylactic that is encapsulated or otherwise associated with a lipid nanoparticle (e.g., an empty LNP or a loaded LNP) after preparation, relative to the initial amount provided. The encapsulation efficiency is desirably high (e.g., close to 100%). The encapsulation efficiency may be measured, for example, by comparing the amount of therapeutic and/or prophylactic in a solution containing the lipid nanoparticle (e.g., an empty LNP or a loaded LNP) before and after breaking up the lipid nanoparticle (e.g., an empty LNP or a loaded LNP) with one or more organic solvents or detergents. Fluorescence may be used to measure the amount of free therapeutic and/or prophylactic (e.g., RNA) in a solution. For the lipid nanoparticles (e.g., empty LNPs or loaded LNPs) described herein, the encapsulation efficiency of a therapeutic and/or prophylactic may be at least 50%, for example 50%, 55%, 60%, 65%, 70%, 75%, 80%, 85%, 90%, 91%, 92%, 93%, 94%, 95%, 96%, 97%, 98%, 99%, or 100%. In some embodiments, the encapsulation efficiency may be at least 80%. In certain embodiments, the encapsulation efficiency may be at least 90%. In some embodiments, the encapsulation efficiency of the therapeutic and/or prophylactic agent is between 80% and 100%.
Lipid nanoparticles (e.g., empty LNPs or loaded LNPs) including DSPC as a phospholipid, cholesterol as a structural lipid, PEG-1 as a PEG lipid, and a compound according to Formula (1-1), (2-1), (I-a), (A), (B), (A-1), (A-2), (A-3), (IA), (IB), (B-1), (B-2), (B-3), (A-a), (A-a1), (A-a2), (A-a3), (A-b), (A-b1), (A-b2), (A-b3), (A-c), or (B-c) were prepared. Tables 2a and 2b summarize the characteristics of the formulations.

[2] = Residual lipid levels in the liver of mice after LNP administration; type: in vivo; settings: calculation assumes a 25 g mouse with a 1.5 g liver

Structure (SMILES) | Size (nm) [1] [nm] | % EE [1] [%] | PDI [1] | Approx. Percent Total Dose of Parent Lipid Remaining at 24 h [2] [%]
CCCCCC(CCCCC)CCOC(=O)CCCCCCCN(CCCCCCCC(=O)OC(CCCC)CCCC)CCCNc1c(NC)c(=O)c1=O [Compound 58, Nonan-5-yl 8-((3-((2-(methylamino)-3,4-dioxocyclobut-1-en-1-yl)amino)propyl)(8-oxo-8-((3-pentyloctyl)oxy)octyl)amino)octanoate] | 63.9 | 90.1 | 0.12 | –
CCCCCCC(CCCCCC)OC(=O)CCCCCCCN(CCCCCCCC(=O)OCCC(CCC)CCC)CCCNc1c(NC)c(=O)c1=O [Compound 64, 3-Propylhexyl 8-((3-((2-(methylamino)-3,4-dioxocyclobut-1-en-1-yl)amino)propyl)(8-oxo-8-(tridecan-7-yloxy)octyl)amino)octanoate] | 73.6 | 89.2 | 0.13 | –
CCCCCC(CCCCC)CCOC(=O)CCCCCCCN(CCCCCCCC(=O)OCCC(CCCC)CCCC)CCCNc1c(NC)c(=O)c1=O [Compound 54, 3-Butylheptyl 8-((3-((2-(methylamino)-3,4-dioxocyclobut-1-en-1-yl)amino)propyl)(8-oxo-8-((3-pentyloctyl)oxy)octyl)amino)octanoate] | 64.3 | 98.3 | 0.10 | –
CCCCCCCC(CCCCCCC)OC(=O)CCCCCCCN(CCCCCCCC(=O)OCCC(CCC)CCC)CCCNc1c(NC)c(=O)c1=O [Compound 63, Pentadecan-8-yl 8-((3-((2-(methylamino)-3,4-dioxocyclobut-1-en-1-yl)amino)propyl)(8-oxo-8-((3-propylhexyl)oxy)octyl)amino)octanoate] | 56.2 | 98.1 | 0.15 | 9 ± 3
CCCCCC(CCCCC)CCOC(=O)CCCCCCCN(CCCCCCCC(=O)OC(CCCCC)CCCCC)CCCNc1c(NC)c(=O)c1=O [Compound 57, 3-Pentyloctyl 8-((3-((2-(methylamino)-3,4-dioxocyclobut-1-en-1-yl)amino)propyl)(8-oxo-8-(undecan-6-yloxy)octyl)amino)octanoate] | 69.4 | 90.1 | 0.12 | –
CCCCCCC(CCCCCC)OC(=O)CCCCCCCN(CCCCCCCC(=O)OCCC(CCCC)CCCC)CCCNc1c(NC)c(=O)c1=O [Compound 60, 3-Butylheptyl 8-((3-((2-(methylamino)-3,4-dioxocyclobut-1-en-1-yl)amino)propyl)(8-oxo-8-(tridecan-7-yloxy)octyl)amino)octanoate] | 60.4 | 98.8 | 0.14 | –
CCCCC(CCCC)CCOC(=O)CCCCCCCN(CCCCCCCC(=O)OCCC(CCCC)CCCC)CCCNc1c(NC)c(=O)c1=O [Compound 55, Bis(3-butylheptyl) 8,8′-((3-((2-(methylamino)-3,4-dioxocyclobut-1-en-1-yl)amino)propyl)azanediyl)dioctanoate] | 77.0 | 88.9 | 0.25 | –
CCCC(CCC)CCOC(=O)CCCCCCCN(CCCCCCCC(=O)OCCC(CCC)CCC)CCCNc1c(NC)c(=O)c1=O [Compound 53, Bis(3-propylhexyl) 8,8′-((3-((2-(methylamino)-3,4-dioxocyclobut-1-en-1-yl)amino)propyl)azanediyl)dioctanoate] | 106.7 | 84.2 | 0.28 | –
CCCCCC(CCCCC)OC(=O)CCCCCCCN(CCCCCCCC(=O)OCCC(CCC)CCC)CCCNc1c(NC)c(=O)c1=O [Compound 65, 3-Propylhexyl 8-((3-((2-(methylamino)-3,4-dioxocyclobut-1-en-1-yl)amino)propyl)(8-oxo-8-(undecan-6-yloxy)octyl)amino)octanoate] | 83.1 | 88.6 | 0.17 | –
CCCCC(CCCC)CCOC(=O)CCCCCCCN(CCCCCCCC(=O)OCCC(CCC)CCC)CCCNc1c(NC)c(=O)c1=O [Compound 52, 3-Butylheptyl 8-((3-((2-(methylamino)-3,4-dioxocyclobut-1-en-1-yl)amino)propyl)(8-oxo-8-((3-propylhexyl)oxy)octyl)amino)octanoate] | 70.5 | 84.9 | 0.16 | –
CCCCCC(CCCCC)CCOC(=O)CCCCCCCN(CCCCCCCC(=O)OCCC(CCC)CCC)CCCNc1c(NC)c(=O)c1=O [Compound 51, 3-Pentyloctyl 8-((3-((2-(methylamino)-3,4-dioxocyclobut-1-en-1-yl)amino)propyl)(8-oxo-8-((3-propylhexyl)oxy)octyl)amino)octanoate] | 58.3 | 95.9 | 0.12 | –
CCCCC(CCCC)OC(=O)CCCCCCCN(CCCCCCCC(=O)OCCC(CCC)CCC)CCCNc1c(NC)c(=O)c1=O [Compound 66, Nonan-5-yl 8-((3-((2-(methylamino)-3,4-dioxocyclobut-1-en-1-yl)amino)propyl)(8-oxo-8-((3-propylhexyl)oxy)octyl)amino)octanoate] | 145.3 | 81.7 | 0.25 | –
CCCCC(CCCC)CCOC(=O)CCCCCCCN(CCCCCCCC(=O)OC(CCCC)CCCC)CCCNc1c(NC)c(=O)c1=O [Compound 62, 3-Butylheptyl 8-((3-((2-(methylamino)-3,4-dioxocyclobut-1-en-1-yl)amino)propyl)(8-(nonan-5-yloxy)-8-oxooctyl)amino)octanoate] | 91.0 | 83.0 | 0.17 | –
CCCCCC(CCCCC)OC(=O)CCCCCCCN(CCCCCCCC(=O)OCCC(CCCC)CCCC)CCCNc1c(NC)c(=O)c1=O [Compound 61, 3-Butylheptyl 8-((3-((2-(methylamino)-3,4-dioxocyclobut-1-en-1-yl)amino)propyl)(8-oxo-8-(undecan-6-yloxy)octyl)amino)octanoate] | 63.5 | 98.1 | 0.09 | –
